Laboratory results published in patent US20230364118A1, “RIBITOL TREATMENT” (priority 2020, published 2023).
Entries after “also recorded” stand apart in the source; their conditions may differ.

What was measured:
Phase 2 patient study = type: in vivo, human; conditions: for average drop in fatigue (scale of 1 to 10): 90 days
Description: Ribitol is being tested in an ongoing Phase 2 study with 14 patients receiving doses of either 6 g once daily (QD), 6 g twice daily (BID), or 12 g BID. Data is available following 3 months of therapeutic exposure in 8 subjects (6 g QD, n=4, 6 g BID, n=4). […] All 12 subjects have shown decreases in creatine kinase from baseline. Younger, ambulatory patients started with higher baseline creatine kinase values and had the largest magnitude drops. Decreases were observable starting at day 8 with continued declines through day 90. Efficacy studies are ongoing. Improvements in 10-meter walk test (MWT) to test ambulation, NSAD for gross motor function, PUL2.0 for upper limb function, and spirometry for respiratory function have been observed (Table 17). […] Decreases in patient-reported muscle fatigue over the 90-day treatment period has been observed in 7 of 8 patients. These 7/8 patients have reported decreases as recorded in a daily diary and noted on a scale of 1 to 10 where 1 indicates no fatigue and a 10 is the maximum level of fatigue.

L276I FKRP mutant mice = assay: Efficacy in L276I FKRP mutant mouse model; type: in vivo
Protocol: The more common LGMD2i FKRP L276I mutation was studied in a murine model of disease. […] Total running time was increased in these dosing groups (FIG. 7C).
The effect of ribitol on an additional model of LGMD2i was evaluated in mice with the L276I FKRP mutation. L276I mutant mice were treated with ribitol at single daily doses of 0.5 g/kg, 2 g/kg, 5 g/kg, and 5 g/kg BID by oral gavage from the age of 8 weeks when the mild dystrophic phenotype is detectable. The duration of treatment was one year. Ribitol was dissolved in saline and administered by oral gavage. The same methods described above were applied to evaluate expression of matriglycan and muscle pathology.

HPBLs = assay: In vitro micronucleus assay; type: cell-based, human
Protocol: In this GLP-compliant study, ribitol was tested to evaluate the potential to induce micronuclei in HPBLs in both the absence and presence of S9. HPBL cells were treated for 4 hours in the absence and presence of S9, and for 24 hours in the absence of S9. Purified water was used as the vehicle. In the preliminary toxicity assay, the doses tested ranged from 0.0152 to 152 μg/mL (1 mM), which was the limit dose for this assay.

[1] = 28-day oral GLP toxicity study with 14-day recovery; conditions: mouse
Protocol: The purpose of this GLP study was to assess the potential toxicity, reversibility, persistence, or delayed effects of ribitol in mice following 28 days of BID oral gavage dosing. In addition, 20 mice/sex/group were treated for 28 days with either vehicle (purified water), 0.5, 1.0, or 1.5 g/kg/dose ribitol BID (1.0, 2.0, or 3.0 g/kg/day) followed by 14-day treatment free recovery period. In-life assessments included mortality, clinical signs including detailed clinical observations pre-test and once weekly during the dosing and recovery phase, body weight, food consumption, ophthalmology, and clinical pathology (hematology and serum chemistry). Terminal endpoints included macroscopic pathology, organ weights and histopathology. Blood was taken from a satellite group of mice for plasma TK (3/sex/timepoint) on Days 1 and 28.

[2] = Metabolic stability, all species; type: in vitro ADME, CD-1 mouse, Sprague-Dawley rat, Gottingen minipig, human; conditions: incubated up to 2 hours, all four species
Protocol: Metabolic stability of ribitol was conducted in liver microsomes, cytosol, and primary hepatocytes, from CD-1 mouse, Sprague-Dawley rat, Gottingen minipig, and human at a concentration of ribitol of 10 μM.
Therefore, metabolism is unlikely to be a major elimination pathway of ribitol.

[3] = male, Bama, minipig, in vivo, 24 h
Protocol: Minipigs received 0 (vehicle, purified water), 0.3, 1.0, or 2.0 g/kg of ribitol in a Latinsquare design on Days 1, 12, 17, and 25, respectively. […] Body weights were measured at baseline and on each dosing day. On each dosing occasion, ECG waveforms, heart rate, and blood pressure data were recorded from at least 2 hours prior to dose (to establish baseline values) to approximately 24 hours post-dose. ECG tracings of a minimum of 30 seconds duration were obtained from all minipigs twice prior to each dose (at least 30 minutes apart) and at 0.5, 2, 4, 8, 12, and 24 hours post dose.

With `OC[C@@H](O)[C@@H](O)[C@@H](O)CO` [ribitol, (2R,3s,4S)-Pentane-1,2,3,4,5-pentol] the “subjects with increase in glycosylation of αDG” value (Phase 2 patient study; 6 g BID, 3 months) was 3 of 4, the “average decrease in creatine kinase” value (Phase 2 patient study; 6 g BID, day 90) was 77% and the “subjects with increase in glycosylation of αDG” value (Phase 2 patient study; 6 g QD, 3 months) was 4 of 4. For the same compound, the “average decrease in creatine kinase” value (Phase 2 patient study; 6 g QD, day 90) was 90%, the “average decrease in creatine kinase” value (Phase 2 patient study; 12 g BID, day 8) was 33% and the “patients with decrease in patient-reported muscle fatigue” value (Phase 2 patient study; 90-day treatment period) was 7 of 8. The “Mean 10MWT (Ambulation)” value (Phase 2 patient study; Baseline, Cohort 1 (6 g QD)) was 2.06 m/sec, the “Mean NSAD (Gross Motor Function)” value (Phase 2 patient study; Baseline, Cohort 1 (6 g QD)) was 33.8 and the “Mean PUL2.0 (Upper Limb Function)” value (Phase 2 patient study; Baseline, Cohort 1 (6 g QD)) was 37.3. For the same compound, the “Mean 10MWT (Ambulation)” value (Phase 2 patient study; Baseline, Cohort 2 (6 g BID)) was 1.48 m/sec, the “Mean NSAD (Gross Motor Function)” value (Phase 2 patient study; Baseline, Cohort 2 (6 g BID)) was 28.5 and the “Mean PP Supine FVC (Respiratory Function)” value (shortened to “Mean PP Supine FVC”) (Phase 2 patient study; Baseline, Cohort 2 (6 g BID)) was 54.3. The “Mean PUL2.0 (Upper Limb Function)” value (Phase 2 patient study; Baseline, Cohort 2 (6 g BID)) was 35.8, the “Mean 10MWT (Ambulation)” value (Phase 2 patient study; Baseline, Overall) was 1.77 m/sec and the “Mean NSAD (Gross Motor Function)” value (Phase 2 patient study; Baseline, Overall) was 31.1. For the same compound, the “Mean PP Supine FVC” value (Phase 2 patient study; Baseline, Overall) was 54.3, the “Mean PUL2.0 (Upper Limb Function)” value (Phase 2 patient study; Baseline, Overall) was 36.5 and the “Mean 10MWT (Ambulation)” value (Phase 2 patient study; Day 90, Cohort 1 (6 g QD)) was 2.82 m/sec. The “Mean NSAD (Gross Motor Function)” value (Phase 2 patient study; Day 90, Cohort 1 (6 g QD)) was 33.5, the “Mean PP Supine FVC” value (Phase 2 patient study; Day 90, Cohort 1 (6 g QD)) was 79.5 and the “Mean PUL2.0 (Upper Limb Function)” value (Phase 2 patient study; Day 90, Cohort 1 (6 g QD)) was 37.3. For the same compound, the “Mean 10MWT (Ambulation)” value (Phase 2 patient study; Day 90, Cohort 2 (6 g BID)) was 1.56 m/sec, the “Mean NSAD (Gross Motor Function)” value (Phase 2 patient study; Day 90, Cohort 2 (6 g BID)) was 29.0 and the “Mean PP Supine FVC” value (Phase 2 patient study; Day 90, Cohort 2 (6 g BID)) was 50.0. The “Mean PUL2.0 (Upper Limb Function)” value (Phase 2 patient study; Day 90, Cohort 2 (6 g BID)) was 36.3, the “Mean 10MWT (Ambulation)” value (Phase 2 patient study; Day 90, Overall) was 2.10 m/sec and the “Mean NSAD (Gross Motor Function)” value (Phase 2 patient study; Day 90, Overall) was 31.3. The “Mean PP Supine FVC” value (Phase 2 patient study; Day 90, Overall) was 64.8, the “Mean PUL2.0 (Upper Limb Function)” value (Phase 2 patient study; Day 90, Overall) was 36.8 and the “Mean 10MWT (Ambulation)” value (Phase 2 patient study; Delta, Cohort 1 (6 g QD)) was 0.10 m/sec. The “Mean NSAD (Gross Motor Function)” value (Phase 2 patient study; Delta, Cohort 1 (6 g QD)) was −0.3, the “Mean PUL2.0 (Upper Limb Function)” value (Phase 2 patient study; Delta, Cohort 1 (6 g QD)) was 0.0 and the “Mean 10MWT (Ambulation)” value (Phase 2 patient study; Delta, Cohort 2 (6 g BID)) was 0.08 m/sec. For the same compound, the “Mean NSAD (Gross Motor Function)” value (Phase 2 patient study; Delta, Cohort 2 (6 g BID)) was 0.5, the “Mean PP Supine FVC” value (Phase 2 patient study; Delta, Cohort 2 (6 g BID)) was −4.3 and the “Mean PUL2.0 (Upper Limb Function)” value (Phase 2 patient study; Delta, Cohort 2 (6 g BID)) was 0.5. The “Mean 10MWT (Ambulation)” value (Phase 2 patient study; Delta, Overall) was 0.09 m/sec, the “Mean NSAD (Gross Motor Function)” value (Phase 2 patient study; Delta, Overall) was 0.1 and the “Mean PP Supine FVC” value (Phase 2 patient study; Delta, Overall) was −4.3. The “Mean PUL2.0 (Upper Limb Function)” value (Phase 2 patient study; Delta, Overall) was 0.3, the “average increase in glycosylation of αDG” value (Phase 2 patient study; both cohorts (6 g QD, 6 g BID), 3 months) was 13% and the “average drop in fatigue (scale of 1 to 10)” value (Phase 2 patient study; cohort 1 (6 g QD)) was 1.3 points. For the same compound, the “average drop in fatigue (scale of 1 to 10)” value (Phase 2 patient study; cohort 2 (6 g BID)) was 1.5 points, the creatine kinase (L276I FKRP mutant mice; 1 year oral dosing) was “reduced with increasing doses” and the “expression of matriglycan on αDG (immunohistochemistry)” value (L276I FKRP mutant mice; 1 year oral dosing) was “increases in a dose dependent manner”. For the same compound, the “increase in treadmill running distance” value (L276I FKRP mutant mice; 2 g/kg/day) was 14%, the “matriglycan expression (immunohistochemistry)” value (L276I FKRP mutant mice; all treatment groups) was “increased matriglycan expression” and the treadmill running distance (L276I FKRP mutant mice; six months, 2, 5 g/kg, 5 g/kg/dose BID, 3.3 g/kg/dose TID) was “trend toward improved running distance”. For the same compound, the total running time (L276I FKRP mutant mice; six months, same dosing groups) was “increased”, the cytotoxicity (HPBLs; 0.0152 to 152 μg/mL, with and without S9) was “Cytotoxicity was not observed” and the induction of micronuclei (HPBLs; 19 to 152 μg/mL, presence and absence of S9) was “negative; also recorded: devoid of genotoxicity potential”. The NOAEL ([1]; 28 days oral) was 1.5 g/kg/dose BID, the “time to resolution of soft or abnormal stools” value ([1]; in vivo) was 2 to 8 days and the “metabolic stability in liver microsomes, cytosol, hepatocytes” value [2] was “stable; also recorded: not metabolized by the enzymes in the liver”. The “NOEL above efficacious dose of 0.5 g/kg in FKRP mutant mouse models” value [3] was “approximately 4 fold” and the “safety margin for proposed clinical starting dose” value [3] was 227 fold.
